Data: patent publication EP4342467A1, “KU INHIBITORS FOR USE IN TUMOR THERAPY” (Masarykova Univerzita, priority 2022, dated 2024)
pIC50: −log10 of the molar value.

Tests used:
[1] = tested on: HeLa; experiment: combination with BIBR1532, relative growth by ATPlite; type: cell-based, human; conditions: 10 µM BIBR1532, 0.25 µM iKU-1 or their combination, 4 days
[2] = tested on: HCT116 cells; experiment: flow cytometry analysis of DNA content (cell cycle); type: cell-based, human; conditions: HCT116 incubated for two days
Procedure: HCT116 cells were incubated for two days in McCoy's 5a medium supplemented with 10% Fetal Bovine Serum, 2 mM L-Glutamine and Penicilin/Streptomycin 200 U/l each in the presence of iKU-1, harvested and fixed in cold 70% ethanol. Cells were recovered in PBS solution and resuspended in 200 µl of Vindel solution containing propidium iodide and RNAse A, and nuclear DNA content was measured by flow cytometry (Beckton Dickinson FACS Verse). Accumulation of cells in S-phase is apparent already after two days of the iKU-1 treatment.

[3] = biological target: T1, Ku complex (Homo sapiens, UniProt P12956+P13010); experiment: microwell protein induced fluorescent enhancement assay (mwPIFE) of Ku-DNA binding
T1 sequence (P12956 whole entry): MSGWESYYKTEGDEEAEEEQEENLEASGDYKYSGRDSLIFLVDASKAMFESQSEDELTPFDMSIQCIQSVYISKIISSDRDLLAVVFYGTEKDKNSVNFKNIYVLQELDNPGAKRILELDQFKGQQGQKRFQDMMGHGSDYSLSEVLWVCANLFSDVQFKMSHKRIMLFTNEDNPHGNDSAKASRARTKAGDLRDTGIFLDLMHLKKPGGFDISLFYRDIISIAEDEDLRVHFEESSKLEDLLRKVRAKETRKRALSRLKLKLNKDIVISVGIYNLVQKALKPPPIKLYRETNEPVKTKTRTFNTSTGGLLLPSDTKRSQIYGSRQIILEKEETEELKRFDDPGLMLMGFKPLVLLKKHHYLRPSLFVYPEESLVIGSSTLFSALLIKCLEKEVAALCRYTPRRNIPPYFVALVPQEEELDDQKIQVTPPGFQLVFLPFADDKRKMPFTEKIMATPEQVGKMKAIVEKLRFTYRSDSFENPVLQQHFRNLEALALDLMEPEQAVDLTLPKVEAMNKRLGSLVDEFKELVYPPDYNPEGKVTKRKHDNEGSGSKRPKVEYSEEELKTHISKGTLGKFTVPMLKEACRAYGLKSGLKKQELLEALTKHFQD
T1 sequence (P13010 whole entry): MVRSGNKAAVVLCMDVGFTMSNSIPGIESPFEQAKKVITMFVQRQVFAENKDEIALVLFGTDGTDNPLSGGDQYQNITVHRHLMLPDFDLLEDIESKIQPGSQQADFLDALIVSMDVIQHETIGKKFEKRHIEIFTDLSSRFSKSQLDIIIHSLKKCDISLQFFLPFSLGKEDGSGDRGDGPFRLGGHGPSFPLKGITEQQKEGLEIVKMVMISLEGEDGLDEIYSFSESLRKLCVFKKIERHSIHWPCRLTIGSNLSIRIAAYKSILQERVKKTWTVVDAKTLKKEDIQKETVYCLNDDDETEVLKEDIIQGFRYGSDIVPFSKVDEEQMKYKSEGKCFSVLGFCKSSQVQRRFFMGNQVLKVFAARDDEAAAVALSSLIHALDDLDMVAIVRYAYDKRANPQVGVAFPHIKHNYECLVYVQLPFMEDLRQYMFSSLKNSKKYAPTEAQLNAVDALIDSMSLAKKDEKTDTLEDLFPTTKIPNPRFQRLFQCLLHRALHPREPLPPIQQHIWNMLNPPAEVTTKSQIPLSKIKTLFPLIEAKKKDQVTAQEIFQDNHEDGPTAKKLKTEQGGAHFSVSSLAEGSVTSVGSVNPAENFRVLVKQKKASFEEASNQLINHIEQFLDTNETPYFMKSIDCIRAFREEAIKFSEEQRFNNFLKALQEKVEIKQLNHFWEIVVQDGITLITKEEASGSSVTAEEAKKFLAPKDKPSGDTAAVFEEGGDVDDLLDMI
Procedure: A rapid method for detecting protein-nucleic acid interactions by protein induced fluorescence enhancement. Sci Rep 6, 39653. mwPIFE is based on enhanced fluorescence of cyanine fluorophores attached to nucleic acid probes upon protein binding. […] The probe was immobilized in 96 well plates through biotin (Btn) attached to one end of DNA and incubated with purified Ku complex (0.5 pmol) in 50 µl of binding buffer (10 mM calcium acetate, 60 mM potassium acetate, 20 mM TRISacetate pH 7.9, 100 mg BSA/1). Ku-DNA binding was calculated from altered fluorescence measured by a fluorescence plate reader (Valuchova et al., 2016). […]

[4] = tested on: HCT116; experiment: combination with BIBR1532, relative growth by ATPlite; type: cell-based, human
Procedure: 10,000 HCT116 cells were seeded in 100 µl of McCoy's 5a medium supplemented with 10% Fetal Bovine Serum, 2 mM L-Glutamine and Penicilin/Streptomycin 200 U/l for 1 day in 96well plate and treated with 10 µM BIBR1532, 0.25 µM of iKU-1 or their combination for 4 days. Number of viable cells was measured by ATPlite kit (Perkin Elmer) and normalized to the treatment with 0.5% DMSO. The results presented in Table 2 show a synergistic effect of iKU-1 and BIBR1532 on the growth of HCT116 tumor cell line. Values in the table indicate relative growth assessed by ATPlite kit compared to the control sample treated with 0.5% DMSO after 4 days of treatment.

[5] = biological target: T1, Ku complex; experiment: electrophoretic mobility shift assay (EMSA) of Ku binding to double stranded DNA; conditions: 98 bp DNA probe, compared with STL127705 (Figure 1)
Excerpt: We also compared iKU-1 (Compound 1) and the published Ku inhibitor STL127705 (Weterings, E., Gallegos, A.C., Dominick, L.N., Cooke, L.S., Bartels, T.N., Vagner, J., Matsunaga, T.O., and Mahadevan, D. (2016). A novel small molecule inhibitor of the DNA repair protein Ku70/80. DNA Repair (Amst) 43, 98-106) in their efficiency to inhibit binding of Ki to double stranded DNA by electrophoretic mobility shift assay (Figure 1). A 98 bp long oligonucleotide that can bind up to four Ku complexes was used as a probe.
DNA (0.6 nM) in 10 µl EMSA buffer (35 mM Tris-Cl pH 7.9, 150 mM KCl, 1 mM EDTA, 0.1 mM Dithiothreitol, 5% Glycerol) was mixed with 10 µl of human Ku complex (100 nM in EMSA buffer) preincubated with the inhibitors for 5 min at room temperature, and incubated for additional 10 min. DNA associated with Ku complexes was seprated by native polyacrylamide gel electrophoresis (5% polyacrylamide 29:1 [Sigma-Aldrich], 0.5 TBE) at 160 V for 4 hrs. Gels were dried in gel dryer on 3MM paper, exposed to phospho-screen (GE Healthcare) and the autoradiograms were generated by scanning with Typhoon (GE Healthcare).

[6] = tested on: HCT116 cells; experiment: Q-FISH scoring of chromosome arms with no telomeric signal; type: cell-based, human; conditions: HCT116, one or two days, 2 or 5 µM
Procedure: Presence of extrachromosomal circular telomeric DNA indicates rapid telomere shortening via excision of telomeric circles. To validate this prediction, we scored chromosome arms with no telomeric signal on metaphase chromosomes from iKU-1 treated cells by quantitative fluorescence in situ hybridization (Q-FISH). HCT116 cells were incubated for one or two days in McCoy's 5a medium with 10% Fetal Bovine Serum, 2 mM L-Glutamine and Penicilin/Streptomycin 200 U/l each and supplemented with iKU-1 (2 or 5 µM). Treated cells were incubated with colcemid (0.05 µg/ml) for 3 hours to increase a number of cells in metaphase. Cells were harvested and fixed in methanol and glacial acetic acid (3:1 v/v). Chromosome spreads on slides were hybridized with telomeric peptide nucleid acid probe TelC-Cy3 (Panagene, F1002) in 70% formamide, 0.5% blocking reagent (Roche) and 20 mM TRIS-Cl pH 7.4 according manufacturer's instruction. After washing, slides were counterstained with DAPI and mounted in […]® Antifade Mounting Medium with DAPI (Vector Laboratories; H-1200-10). Fluorescence microscope with oil immersed 100× objective was used to detect telomeric signal at chromosome ends.

[7] = tested on: HCT116 cells; experiment: cell proliferation, ATPlite assay; type: cell-based; conditions: Homo sapiens, HCT-116, 120 h, read-out: Inhibition of cell proliferation IC50
Procedure: HCT116, U2OS and HeLa cells were grown in McCoy's 5a medium supplemented with 10% Fetal Bovine Serum, 2 mM L-Glutamine and Penicilin/Streptomycin 200 U/l each in the presence of Compound 1-9. After growth at 37 °C, 5% CO2 for 3 days, monolayer of cells was detached using TrypLE Express (Gibco), cells were counted using 0.4% trypan blue stain and hemocytometer. […] Number of viable cells was estimated using ATPlite kit (Perkin Elmer).

[8] = tested on: SKOV3; experiment: growth of SKOV3 cells by ATPlite; type: cell-based; conditions: 7 days
Procedure: 2,000 SKOV3 and A2780 cells were seeded in 100 µl of McCoy's 5a or RPMI 1640 media, respectively, for one day and then incubated with iKU-1 for 7 days. Number of viable cells was measured by ATPlite kit (Perkin Elmer) and normalized to the treatment with 0.5% DMSO.

For O=C(Nc1nc(-c2ccccn2)cs1)c1cncc(Br)c1 [Compound 1], the “relative growth assessed by ATPlite kit compared to the control sample treated with 0.5% DMSO” value [1] was 1.22, the cell cycle effect [2] was “cell cycle arrest in S-phase” and the pIC50 ([3]; mwPIFE, estimated from the 0.5 to 8 µM concentration range, read-out: Inhibition of Ku-DNA binding IC50) was 5.52. The remaining activity at 8 µM ([3]; read-out: % binding at 8 µM (100% = 0.5% DMSO)) was 5%, the “interaction with BIBR1532 on growth” value ([4]; HCT116, 10 µM BIBR1532 with 0.25 µM iKU-1, 4 days) was “synergism” and the “relative growth assessed by ATPlite kit compared to the control sample treated with 0.5% DMSO” value ([4]; HCT116, 10 µM BIBR1532, 0.25 µM iKU-1 or their combination, 4 days) was 1.17. The “efficiency to inhibit binding of Ku to double stranded DNA” value [5] was “more potent inhibitor of Ku-DNA binding than STL127705”, the “incidence of telomere-free chromosome ends” value [6] was “increase incidence of telomere-free chromosome ends” and the pIC50 [7] was 6.30. For the same compound, the “sensitivity of cells (growth)” value ([8]; SKOV3, 0.5 µM) was “sensitive” and the “sensitivity of SKOV3 relative to A2780” value ([8]; from growth curves (Figure 9)) was 10 times.
